Experimental data published in patent US20240384268A1, “Oligonucleotides” (Hudson Institute of Medical Research, priority 2021, published 2024).

Target: T1, human TLR7 (Homo sapiens, UniProt Q9NYK1)
T1 construct: HA; host or cells: 293XL-hTLR7-HA (HEK293)
T1 sequence (Q9NYK1 27-1049): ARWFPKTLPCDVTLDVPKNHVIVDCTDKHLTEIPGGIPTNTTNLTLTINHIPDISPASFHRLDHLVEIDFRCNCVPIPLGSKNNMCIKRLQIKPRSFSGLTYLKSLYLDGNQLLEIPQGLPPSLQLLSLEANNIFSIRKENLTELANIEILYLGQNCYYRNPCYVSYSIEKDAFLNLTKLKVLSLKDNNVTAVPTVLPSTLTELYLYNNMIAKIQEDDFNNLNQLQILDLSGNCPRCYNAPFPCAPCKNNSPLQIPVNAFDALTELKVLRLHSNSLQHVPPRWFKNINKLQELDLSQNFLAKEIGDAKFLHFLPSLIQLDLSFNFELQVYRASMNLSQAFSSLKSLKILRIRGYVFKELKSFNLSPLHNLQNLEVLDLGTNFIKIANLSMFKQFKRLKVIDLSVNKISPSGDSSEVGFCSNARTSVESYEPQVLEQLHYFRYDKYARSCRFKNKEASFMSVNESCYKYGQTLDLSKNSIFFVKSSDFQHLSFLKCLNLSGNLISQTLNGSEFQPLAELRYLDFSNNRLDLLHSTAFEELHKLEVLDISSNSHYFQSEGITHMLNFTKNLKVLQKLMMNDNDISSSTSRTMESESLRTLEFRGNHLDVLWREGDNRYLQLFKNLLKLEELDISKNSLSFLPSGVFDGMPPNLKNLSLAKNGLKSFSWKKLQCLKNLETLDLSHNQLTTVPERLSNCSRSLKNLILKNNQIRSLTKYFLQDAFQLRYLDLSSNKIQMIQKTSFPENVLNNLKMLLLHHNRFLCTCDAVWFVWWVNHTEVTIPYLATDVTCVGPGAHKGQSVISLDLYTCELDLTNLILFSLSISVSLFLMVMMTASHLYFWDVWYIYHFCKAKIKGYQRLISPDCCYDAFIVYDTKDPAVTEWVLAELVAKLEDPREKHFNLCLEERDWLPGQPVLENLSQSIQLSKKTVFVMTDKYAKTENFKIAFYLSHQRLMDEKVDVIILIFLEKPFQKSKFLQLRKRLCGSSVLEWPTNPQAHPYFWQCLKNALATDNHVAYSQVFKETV
Test: HEK-TLR7 NF-κB-luciferase reporter, R848 stimulation
Format: cell-based
Details: averaged NF-κB-Luciferase relative to R848 condition; for TLR7 100 nM: MOE-modified ASO at 100 nM; for TLR7 500 nM: MOE-modified ASO at 500 nM

Row | Sequence | TLR7 100 nM | TLR7 500 nM
1 | CTCTTGAAGCATCGTATCAC (antisense; 2'-MOE modified, pattern not given here) [CTNN2B-3648 MOE] | 0.609 | 0.341
2 | CAATGTGATGGCCTCCCATC (antisense; 2'-MOE modified, pattern not given here) [HPRT-335 MOE] | 0.451 | 0.279
3 | GTGTCCTTGCACGTGGCTTC (antisense; 2'-MOE modified, pattern not given here) [EGFR-1015 MOE] | 0.377 | 0.212
4 | GTGTCTTCATCGGCCCTGCC (antisense; 2'-MOE modified, pattern not given here) [CAMSAP1-2113 MOE] | 0.371 | 0.132
5 | GTCCACATCCTGTGGCTCGT (antisense; 2'-MOE modified, pattern not given here) [CAMSAP1-2906 MOE] | 0.299 | 0.119
6 | ACAGTGTTGAGATACTCGGG (antisense; 2'-MOE modified, pattern not given here) [EGFR-3652 MOE] | 0.420 | 0.129
7 | CGTGTCTGGAAGCTTCCTTT (antisense; 2'-MOE modified, pattern not given here) [CTNN2B-808 MOE] | 0.541 | 0.350
8 | ATGTGATGGCCTCCCATCTC (antisense; 2'-MOE modified, pattern not given here) [HPRT-333 MOE] | 0.643 | 0.345
9 | ATGTCCCCTGTTGACTGGTC (antisense; 2'-MOE modified, pattern not given here) [HPRT-489 MOE] | 0.426 | 0.224
10 | TTCTGCAGCTTCCTTGTCCT (antisense; 2'-MOE modified, pattern not given here) [CTNN2B-2136 MOE] | 0.183 | 0.059
11 | ATCCAACACTTCGTGGGGTC (antisense; 2'-MOE modified, pattern not given here) [HPRT-668 MOE] | 0.758 | 0.611
12 | GGTCCATACCCAAGGCATCC (antisense; 2'-MOE modified, pattern not given here) [CTNN2B-2446 MOE] | 0.364 | 0.096
13 | GGGAAAGGTTATGCAAGGTC (antisense; 2'-MOE modified, pattern not given here) [CTNN2B-916 MOE] | 0.599 | 0.163
14 | GAACCACGTCTGCTCTAACA (antisense; 2'-MOE modified, pattern not given here) [CAMSAP1-1635 MOE] | 0.597 | 0.291
15 | GGAGCTTCGAGGCCCCAGGC (MOE modified, pattern not given here) [MB21D1-616 MOE] | 0.392 | 0.179
16 | TAGTCAAGGGCATATCCTAC (antisense; 2'-MOE modified, pattern not given here) [HPRT-732 MOE] | 0.423 | 0.191
17 | GCGTGTCTGGAAGCTTCCTT (antisense; 2'-MOE modified, pattern not given here) [CTNN2B-809 MOE] | 0.415 | 0.134
18 | GGTGGTCCACAACCCCTTTC (antisense; 2'-MOE modified, pattern not given here) [MB21D1-697 MOE] | 0.620 | 0.097
19 | CAACACTTCGTGGGGTCCTT (antisense; 2'-MOE modified, pattern not given here) [HPRT-665 MOE] | 0.487 | 0.285
20 | TCGCACTTCAGTCTGAGCAG (antisense; 2'-MOE modified, pattern not given here) [MB21D1-719 MOE] | 0.574 | 0.241
21 | TTGCACACTTCGTACCCAAA (antisense; 2'-MOE modified, pattern not given here) [CAMSAP1-4915 MOE] | 0.418 | 0.233
22 | ATGTCCCGCCACTGGATGCT (antisense; 2'-MOE modified, pattern not given here) [EGFR-727 MOE] | 0.397 | 0.171

Row | Sequence | TLR7 100 nM | TLR7 500 nM
23 | AGATCTGGCAGCCCATCAAC (antisense; 2'-MOE modified, pattern not given here) [CTNN2B-2516 MOE] | 0.500 | 0.201
24 | CAAGGCCCTTCGCACTTCTT (antisense; 2'-MOE modified, pattern not given here) [EGFR-1225 MOE] | 0.587 | 0.336
25 | GGAGGTCTTGGCTTCGTGGA (antisense; 2'-MOE modified, pattern not given here) [MB21D1-524 MOE] | 0.434 | 0.091
26 | CTTACTTTCCGAGGTGTCCA (antisense; 2'-MOE modified, pattern not given here) [CAMSAP1-1739 MOE] | 0.588 | 0.336
27 | GGCATCCACCACGTCGTCCA (antisense; 2'-MOE modified, pattern not given here) [EGFR-3266 MOE] | 0.216 | 0.097
28 | AATCCGCCCAAAGGGAACTG (antisense; 2'-MOE modified, pattern not given here) [HPRT-1027 MOE] | 0.691 | 0.521
29 | GGTGGTGGCCACCCATCTCA (antisense; 2'-MOE modified, pattern not given here) [CTNN2B-2479 MOE] | 0.480 | 0.192
30 | GCTTCAGGCGCTGCCTTGCC (antisense; 2'-MOE modified, pattern not given here) [CAMSAP1-2709 MOE] | 0.527 | 0.196
31 | AGGTCTTGGCTTCGTGGAGC (antisense; 2'-MOE modified, pattern not given here) [MB21D1-522 MOE] | 0.547 | 0.150
32 | ACAACCCCTTTCACCATCCC (antisense; 2'-MOE modified, pattern not given here) [MB21D1-689 MOE] | 0.593 | 0.533
33 | TGTCCTTGCACGTGGCTTCG (antisense; 2'-MOE modified, pattern not given here) [EGFR-1014 MOE] | 0.029 | 0.057
34 | AACACTTCGTGGGGTCCTTT (antisense; 2'-MOE modified, pattern not given here) [HPRT-664 MOE] | 0.406 | 0.226
35 | TCCAACACTTCGTGGGGTCC (antisense; 2'-MOE modified, pattern not given here) [HPRT-667 MOE] | 0.929 | 0.578
36 | GCGACTATACGCGCAATATG (antisense; 2'-MOE modified, pattern not given here) [NC5 2′MOE] | 0.948 | 0.294
37 | TGTGATGGCCTCCCATCTCC (antisense; 2'-MOE modified, pattern not given here) [HPRT-332 MOE] | 0.312 | 0.238
38 | GTCTTGGCTTCGTGGAGCAG (antisense; 2'-MOE modified, pattern not given here) [MB21D1-520 MOE] | 0.372 | 0.095
39 | GGTGTCCTTGCACGTGGCTT (antisense; 2'-MOE modified, pattern not given here) [EGFR-1016 MOE] | 0.358 | 0.131
40 | ACCCACTTGGCAGACCATCA (antisense; 2'-MOE modified, pattern not given here) [CTNN2B-1575 MOE] | 0.473 | 0.336
41 | GCCGCTTTTCTGTCTGGTTC (antisense; 2'-MOE modified, pattern not given here) [CTNN2B-311 MOE] | 0.567 | 0.268
42 | GGAGATTTCAGAGCAGCTTC (antisense; 2'-MOE modified, pattern not given here) [EGFR-4885 MOE] | 0.330 | 0.088
43 | CACCCACTTGGCAGACCATC (antisense; 2'-MOE modified, pattern not given here) [CTNN2B-1576 MOE] | 0.600 | 0.227
